This is an account of results in patent US12533339B2, “Small molecule antiviral drug treatment for human papillomavirus infections” (THE TRUSTEES OF INDIANA UNIVERSITY, priority 2020, dated 2026).

Assay [1] concerns the target T1, E6 WT/E6AP (Human papillomavirus type 16, UniProt P03126). The assay is described as follows: biochemical. The following applies: WT 16E6; for inhibition at 10 µM: 10 μM compound; for inhibition at 100 µM: 100 μM compound. In kind it is binding.
A further assay deals with E6C51S/E6AP (Human papillomavirus type 16, UniProt P03126, C58S). The assay is described as follows: E6/E6AP binding assay (amylose-bound MBP-16E6, E6AP-BAP activity), C51S 16E6. Also noted: species or system HPV-16. The following applies: for % Inhibition @ 10 μM E6C51S/E6AP: 10 μM compound; for % Inhibition @ 100 μM E6C51S/E6AP: 100 μM compound.
Sequence of E6C51S/E6AP (P03126 whole entry C58S, looked up): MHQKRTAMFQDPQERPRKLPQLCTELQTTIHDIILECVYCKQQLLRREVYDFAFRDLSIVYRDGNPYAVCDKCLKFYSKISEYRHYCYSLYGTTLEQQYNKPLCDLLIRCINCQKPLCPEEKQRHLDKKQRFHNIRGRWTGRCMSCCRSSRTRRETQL
The target of assay [2] is T1, E6 WT/E6AP. The assay is described as follows: biochemical. In kind it is binding. The note with it: for Emax: 24 h, read-out: FP maximal inhibition (max %) E6 WT/E6AP; for IC50: FP IC50 at 24 h (μM) E6 WT/E6AP.

T1 sequence (P03126 8-158): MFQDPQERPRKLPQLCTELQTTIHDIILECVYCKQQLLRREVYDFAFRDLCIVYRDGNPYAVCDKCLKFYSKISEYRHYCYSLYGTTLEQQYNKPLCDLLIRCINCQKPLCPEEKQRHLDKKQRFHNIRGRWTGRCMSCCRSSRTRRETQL

Consider `Cc1ccccc1C1c2ccsc2CCN1C(C)C(=O)N1CCCN(C(=O)CCl)CC1` (centres unmarked) [EIN-117, 1-(4-(2-chloroacetyl)-1,4-diazepan-1-yl)-2-(4-(o-tolyl)-6,7-dihydrothieno[3,2-c]pyridin-5(4H)-yl)propan-1-one], for which, at E6 WT/E6AP [1], the inhibition at 10 µM was determined as 17 ± 1% and the inhibition at 100 µM was determined as 33 ± 7%.
Regarding `Cc1ccccc1C1c2ccsc2CCN1CC(=O)N1CCN(C(=O)CCl)C(C)C1` (centres unmarked) [EIN-118, 2-chloro-1-(2-methyl-4-(2-(4-(o-tolyl)-6,7-dihydrothieno[3,2-c]pyridin-5(4H)-yl)acetyl)piperazin-1-yl)ethan-1-one], on E6C51S/E6AP, the “% Inhibition @ 10 μM E6C51S/E6AP” value is given as 12 ± 11% and the “% Inhibition @ 100 μM E6C51S/E6AP” value is listed as 79 ± 5%. In addition, on E6 WT/E6AP [1], the inhibition at 10 µM was 49 ± 5% and the inhibition at 100 µM is 98 ± 2%.
The like results for `O=C(CCl)N1CCCN(C(=O)CN2CCc3sccc3C2c2cccc(F)c2)CC1` (centres unmarked) [EIN-119, 2-chloro-1-(4-(2-(4-(3-fluorophenyl)-6,7-dihydrothieno[3,2-c]pyridin-5(4H)-yl)acetyl)-1,4-diazepan-1-yl)ethan-1-one] were, in that order, 9 ± 7%, 34 ± 7%, 33 ± 6% and 61 ± 1%.
On the same counts, the results for `CC1CN(C(=O)CN2CCc3sccc3C2c2cccc(F)c2)CCN1C(=O)CCl` (centres unmarked) [EIN-120, 2-chloro-1-(4-(2-(4-(3-fluorophenyl)-6,7-dihydrothieno[3,2-c]pyridin-5(4H)-yl)acetyl)-2-methylpiperazin-1-yl)ethan-1-one] are 12 ± 5%, 34 ± 2%, 18 ± 5% and 63 ± 1%.
On to `COc1ccc(C2c3ccsc3CCN2CC(=O)N2CCN(C(=O)CCl)C(C)C2)cc1` (centres unmarked) [EIN-121, 2-chloro-1-(4-(2-(4-(4-methoxyphenyl)-6,7-dihydrothieno[3,2-c]pyridin-5(4H)-yl)acetyl)-2-methylpiperazin-1-yl)ethan-1-one], for which, at E6 WT/E6AP [1], the inhibition at 10 µM was 24 ± 2% and the inhibition at 100 µM was found to be 52 ± 1%.
For `Cc1nc(N2CCN(C(=O)CCl)CC2)c2c3c(sc2n1)CCCC3` [EIN-123, 2-chloro-1-(4-(2-methyl-5,6,7,8-tetrahydrobenzo[4,5]thieno[2,3-d]pyrimidin-4-yl)piperazin-1-yl)ethan-1-one], at E6C51S/E6AP, the “% Inhibition @ 10 μM E6C51S/E6AP” value was 44 ± 10% and the “% Inhibition @ 100 μM E6C51S/E6AP” value stood at 90 ± 6%. Further, at E6 WT/E6AP [1], the inhibition at 10 µM came out at 58 ± 12% and the inhibition at 100 µM was found to be 114 ± 11%.
On the same counts, the results for `CCCCc1nc(N2CCN(C(=O)CCl)CC2)c2c3c(sc2n1)CC(C)CC3` (centres unmarked) [EIN-124, 1-(4-(2-butyl-7-methyl-5,6,7,8-tetrahydrobenzo[4,5]thieno[2,3-d]pyrimidin-4-yl)piperazin-1-yl)-2-chloroethan-1-one] are 49 ± 11%, 90 ± 5%, 71 ± 13% and 113 ± 13%.
Take `CCCCc1nc(N2CCN(C(=O)CCl)CC2)c2c3c(sc2n1)CCCC3` [EIN-126, 1-(4-(2-butyl-5,6,7,8-tetrahydrobenzo[4,5]thieno[2,3-d]pyrimidin-4-yl)piperazin-1-yl)-2-chloroethan-1-one]: on E6C51S/E6AP, the “% Inhibition @ 10 μM E6C51S/E6AP” value is given as 12 ± 5% and the “% Inhibition @ 100 μM E6C51S/E6AP” value was determined as 34 ± 2%. Further, on E6 WT/E6AP [1], the inhibition at 10 µM amounted to 18 ± 5% and the inhibition at 100 µM came to 63 ± 1%.
The like results for `O=C(CCl)N1CCN(c2nc(Cc3ccccc3)nc3sc4c(c23)CCCC4)CC1` [EIN-127, 1-(4-(2-benzyl-5,6,7,8-tetrahydrobenzo[4,5]thieno[2,3-d]pyrimidin-4-yl)piperazin-1-yl)-2-chloroethan-1-one] were, in that order, 41 ± 5%, 79 ± 4%, 57 ± 14% and 106 ± 11%.
On the same counts, the results for `Cc1sc2nc(CCc3ccccc3)nc(N3CCN(C(=O)CCl)CC3)c2c1C` [EIN-128, 2-chloro-1-(4-(5,6-dimethyl-2-phenethylthieno[2,3-d]pyrimidin-4-yl)piperazin-1-yl)ethan-1-one] are 19 ± 8%, 60 ± 3%, 47 ± 14% and 106 ± 11%.
On to `Cc1sc2nc(C3CC3)nc(N3CCN(C(=O)CCl)CC3)c2c1C` [EIN-129, 2-chloro-1-(4-(2-cyclopropyl-5,6-dimethylthieno[2,3-d]pyrimidin-4-yl)piperazin-1-yl)ethan-1-one], for which, on E6C51S/E6AP, the “% Inhibition @ 10 μM E6C51S/E6AP” value stood at 57 ± 12% and the “% Inhibition @ 100 μM E6C51S/E6AP” value turned out to be 103 ± 5%. On E6 WT/E6AP [1], the inhibition at 10 µM turned out to be 81 ± 16% and the inhibition at 100 µM was 119 ± 13%.
The like results for `CCCc1nc(N2CCN(C(=O)CCl)CC2)c2c3c(sc2n1)CC(C)CC3` (centres unmarked) [EIN-130, 2-chloro-1-(4-(7-methyl-2-propyl-5,6,7,8-tetrahydrobenzo[4,5]thieno[2,3-d]pyrimidin-4-yl)piperazin-1-yl)ethan-1-one] were, in that order, 52 ± 12%, 85 ± 6%, 46 ± 9% and 100 ± 9%.
`CCc1nc(N2CCN(C(=O)CCl)CC2)c2c3c(sc2n1)CCCC3` [EIN-131, 2-chloro-1-(4-(2-ethyl-5,6,7,8-tetrahydrobenzo[4,5]thieno[2,3-d]pyrimidin-4-yl)piperazin-1-yl)ethan-1-one]: on E6 WT/E6AP [1], the inhibition at 10 µM is 24 ± 3% and the inhibition at 100 µM is 65 ± 3%.
Turning to `C=CC(=O)N1CCN(c2nc(N(C)Cc3ccccc3F)nc3sc4c(c23)CCCC4)CC1` [EIN-140, 1-(4-(2-((2-fluorobenzyl)(methyl)amino)-5,6,7,8-tetrahydrobenzo[4,5]thieno[2,3-d]pyrimidin-4-yl)piperazin-1-yl)prop-2-en-1-one], on E6C51S/E6AP, the “% Inhibition @ 10 μM E6C51S/E6AP” value was found to be 0% and the “% Inhibition @ 100 μM E6C51S/E6AP” value was 0%. In addition, on E6 WT/E6AP [1], the inhibition at 10 µM is 6 ± 6% and the inhibition at 100 µM came out at 17 ± 4%.
`C=CC(=O)N1CCN(c2nc(N(C)Cc3cccc(F)c3)nc3sc4c(c23)CCCC4)CC1` [EIN-141, 1-(4-(2-((3-fluorobenzyl)(methyl)amino)-5,6,7,8-tetrahydrobenzo[4,5]thieno[2,3-d]pyrimidin-4-yl)piperazin-1-yl)prop-2-en-1-one]: at E6C51S/E6AP, the “% Inhibition @ 10 μM E6C51S/E6AP” value is reported as 0% and the “% Inhibition @ 100 μM E6C51S/E6AP” value came out at 0%. In addition, at E6 WT/E6AP [1], the inhibition at 10 µM amounted to 0% and the inhibition at 100 µM came out at 18 ± 5%.
Regarding `C=CC(=O)N1CCN(c2nc(N(C)Cc3ccc(F)cc3)nc3sc4c(c23)CCCC4)CC1` [EIN-142, 1-(4-(2-((4-fluorobenzyl)(methyl)amino)-5,6,7,8-tetrahydrobenzo[4,5]thieno[2,3-d]pyrimidin-4-yl)piperazin-1-yl)prop-2-en-1-one], on E6C51S/E6AP, the “% Inhibition @ 10 μM E6C51S/E6AP” value amounted to 0% and the “% Inhibition @ 100 μM E6C51S/E6AP” value stood at 0%. For the same molecule, on E6 WT/E6AP [1], the inhibition at 10 µM worked out at 17 ± 4% and the inhibition at 100 µM worked out at 28 ± 3%.
For the molecule `C=CC(=O)N1CCN(c2nc(CCc3cccc(OC)c3)nc3sc4c(c23)CCCC4)CC1` [EIN-151, 1-(4-(2-(3-methoxyphenethyl)-5,6,7,8-tetrahydrobenzo[4,5]thieno[2,3-d]pyrimidin-4-yl)piperazin-1-yl)prop-2-en-1-one], the “FP maximal inhibition (max %) E6 WT/E6AP” value at E6 WT/E6AP [2] (at 24 h) was “(max 71%)”.
Take `C=CC(=O)N1CCN(c2nc(CCc3ccc(F)cc3)nc3ccccc23)CC1` [EIN-153, 1-(4-(2-(4-fluorophenethyl)quinazolin-4-yl)piperazin-1-yl)prop-2-en-1-one]: on E6 WT/E6AP [2], the Emax stood at 100% and the IC50 was found to be 27.7 ± 1.3 µM.
Regarding `C=CC(=O)N1CCN(c2nc(CCc3cccc(F)c3)nc3ccccc23)CC1` [EIN-158, 1-(4-(2-(3-fluorophenethyl)quinazolin-4-yl)piperazin-1-yl)prop-2-en-1-one], on E6 WT/E6AP [2], the Emax stood at 100% and the IC50 came out at 52.8 ± 2.8 µM.
The like results for `C=CC(=O)N1CCN(c2nc(-c3cccc(OC)c3)nc3ccccc23)CC1` [EIN-159, 1-(4-(2-(3-methoxyphenyl)quinazolin-4-yl)piperazin-1-yl)prop-2-en-1-one] were, in that order, 91% and 14.5 ± 1.3 µM.
For the molecule `C=CC(=O)N1CCN(c2nc(-c3ccccc3OC)nc3ccccc23)CC1` [EIN-160, 1-(4-(2-(2-methoxyphenyl)quinazolin-4-yl)piperazin-1-yl)prop-2-en-1-one], on E6 WT/E6AP [2], the Emax amounted to 100% and half-maximal inhibition (IC50) required 128 ± 2.3 µM.
On the same counts, the results for `C=CC(=O)N1CCN(c2nc(-c3ccc(OC)cc3)nc3ccccc23)CC1` [EIN-161, 1-(4-(2-(4-methoxyphenyl)quinazolin-4-yl)piperazin-1-yl)prop-2-en-1-one] are 91% and 13.3 ± 1.9 µM.
The like results for `C=CC(=O)N1CCN(c2nc(-c3ccc(OC(F)(F)F)cc3)nc3ccccc23)CC1` [EIN-162, 1-(4-(2-(4-(trifluoroniethoxy)phenyl)quinazolin-4-yl)piperazin-1-yl)prop-2-en-1-one] were, in that order, 100% and 105 ± 13.7 µM.
Regarding `C=CC(=O)N1CCN(c2nc(-c3ccc(OC4CC4)cc3)nc3ccccc23)CC1` [EIN-163, 1-(4-(2-(4-cyclopropoxyphenyl)quinazolin-4-yl)piperazin-1-yl)prop-2-en-1-one], on E6 WT/E6AP [2], the Emax is 100% and half-maximal inhibition (IC50) was put at 41.6 ± 2.8 µM.
`C=CC(=O)N1CCN(c2nc(-c3ccc(OC)cc3F)nc3ccccc23)CC1` [EIN-164, 1-(4-(2-(2-fluoro-4-methoxyphenyl)quinazolin-4-yl)piperazin-1-yl)prop-2-en-1-one]: at E6 WT/E6AP [2], the Emax is 100% and 22.9 ± 1.3 µM corresponded to half-maximal inhibition (IC50).
On the same counts, the results for `C=CC(=O)N1CCN(c2nc(-c3ccc(OC)cc3)nc3cccnc23)CC1` [EIN-165, 1-(4-(2-(4-methoxyphenyl)pyrido[3,2-d]pyrimidin-4-yl)piperazin-1-yl)prop-2-en-1-one] are 100% and 38.2 ± 2.1 µM.
